This data set can be described thus: pKa. The format is physicochemical.

One may read the pKa as the pH at which an ionisable group is half protonated.

For the compound `CCCc1nc2ccc(C)cc2c(=O)n1Cc1ccc(-c2ccccc2-c2nn[nH]n2)cc1` [Example 76], the pKa was determined as 4.7.
